Test results published in PubChem BioAssay (NCI).
“And” between values parts separate entries of the source, which are not always exact repeats. Equal entries are not always repeated.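 How tested: cells in 96-well plates exposed to compound for 48 hours at five concentrations. GI50 is the concentration that inhibits growth by half. TGI is the concentration that stops growth completely.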

Columns and labels:
Assay in all cases: growth of human tumour cells (NCI), 48 h
U251 CNS = tested on: U251 CNS
HCT-116 colon = tested on: HCT-116 colon
EKVX NSCLC = tested on: EKVX NSCLC
UACC-257 melanoma = tested on: UACC-257 melanoma
COLO 205 colon = tested on: COLO 205 colon
UO-31 renal = tested on: UO-31 renal
MOLT-4 leukemia = tested on: MOLT-4 leukemia
K-562 leukemia = tested on: K-562 leukemia
MALME-3M melanoma = tested on: MALME-3M melanoma
NCI-H226 lung = tested on: NCI-H226 lung

| Compound | GI50 (U251 CNS) | TGI (U251 CNS) | GI50 (HCT-116 colon) | TGI (HCT-116 colon) | GI50 (EKVX NSCLC) | TGI (EKVX NSCLC) | GI50 (UACC-257 melanoma) | TGI (UACC-257 melanoma) | GI50 (COLO 205 colon) | TGI (COLO 205 colon) | GI50 (UO-31 renal) | TGI (UO-31 renal) | GI50 (MOLT-4 leukemia) | TGI (MOLT-4 leukemia) | GI50 (K-562 leukemia) | TGI (K-562 leukemia) | GI50 (MALME-3M melanoma) | TGI (MALME-3M melanoma) | GI50 (NCI-H226 lung) | TGI (NCI-H226 lung) |
| --- | --- | --- | --- | --- | --- | --- | --- | --- | --- | --- | --- | --- | --- | --- | --- | --- | --- | --- | --- | --- |
| Cc1[nH]nc(C(=O)n2nc(N)c3ccccc32)c1[N+](=O)[O-] | > 57.2 µM | > 100 µM | > 100 µM | > 100 µM | > 100 µM | > 100 µM | > 100 µM | > 100 µM | > 100 µM | > 100 µM | > 78.6 µM | > 100 µM | > 89.4 µM | > 100 µM | > 100 µM | > 100 µM | > 100 µM | > 100 µM | > 100 µM | > 100 µM |
| CCOP(=O)(OCC)OC(C#N)c1ccc(-c2ccccc2)cc1 (stereo not given) |  | 28.9 µM |  | 28.5 µM |  | > 100 µM |  | 36.8 µM |  | 32.4 µM |  | > 100 µM |  | 29.9 µM |  | 40 µM |  | 41 µM |  | > 100 µM |
| CN1CC[C@]2(C)c3ccc(O)cc3CC3CCCC1C32C (stereo not given in full) |  | > 100 µM |  | > 100 µM |  | > 100 µM |  | > 100 µM |  | > 100 µM |  | > 100 µM |  | > 100 µM |  | > 100 µM |  | > 100 µM |  | > 100 µM |
| COC1C2C=CC(C2)[C@H]1[N+](=O)[O-] (stereo not given in full) |  | > 100 µM |  | > 100 µM |  | > 100 µM |  | > 100 µM |  | > 100 µM |  | > 100 µM |  | > 100 µM |  | > 100 µM |  | > 100 µM |  | > 100 µM |
| O=C1C(c2ccccc2)=[N+]([O-])c2ccccc21 |  | 28.7 µM |  | > 100 µM |  | 35.4 µM |  | 26.1 µM |  | 29.7 µM |  | 29.7 µM |  | 47.2 µM |  | 8.34 µM |  | 38.5 µM |  | 37.8 µM |
| CC(=O)OCC(OC(C)=O)C(OC(C)=O)C(OC(C)=O)C(=O)CNn1c(-c2ccccc2Cl)nc2ccccc2c1=O (stereo not given) |  | > 100 µM |  | > 100 µM |  | > 100 µM |  | > 100 µM |  | > 100 µM |  | > 100 µM |  | > 100 µM |  | > 100 µM |  | > 100 µM |  | > 100 µM |
| COC(=O)C(CC(=O)Nc1ccc(C)cc1)C(=O)C(=O)Nc1ccccc1C(C)C (stereo not given) |  | > 100 µM |  | > 100 µM |  | > 100 µM |  | > 100 µM |  | > 100 µM |  | > 100 µM |  | > 100 µM |  | > 100 µM |  | > 100 µM |  | > 100 µM |
| CN1C(=O)N(C)C2C1NN=c1s/c(=C\c3ccc(F)cc3)c(=O)n12 (stereo not given) | 3.06 µM | > 100 µM | 0.795 µM | > 100 µM | 4.02 µM | > 100 µM | 3.02 µM | > 100 µM | 2.51 µM | > 100 µM | 3.9 µM | > 100 µM | 3.07 µM | > 100 µM | 0.54 µM | > 100 µM | 3.17 µM | > 100 µM | 8.02 µM | > 100 µM |
| COC(=O)C1=C(C(=O)OC)SC(=CC#CC=C2SC(C(=O)OC)=C(C(=O)OC)S2)S1 |  | 33.1 µM |  | 32.3 µM |  | > 100 µM |  | > 100 µM |  | > 54.9 µM |  | 14.1 µM |  | > 100 µM |  | > 100 µM |  | 64.1 µM |  | 35.4 µM |
| CC1C(=O)OCC2=CCN3CCC(OC(=O)C(C)C1(C)O)C23 (stereo not given) |  | > 100 µM |  | > 100 µM |  | > 100 µM |  | > 100 µM |  | > 100 µM |  | > 100 µM |  | > 100 µM |  | > 100 µM |  | > 100 µM |  | > 100 µM |
| Nc1ccc(C(=O)CC(N)C(=O)O)cc1O (stereo not given) |  | > 100 µM |  | > 100 µM |  | > 100 µM |  | > 100 µM |  | > 100 µM |  | > 100 µM |  | > 100 µM |  | > 100 µM |  | > 100 µM |  | > 100 µM |
| COc1ccc(/C=C\c2cc(OC)c(O[Si](C)(C)C(C)(C)C)c(OC)c2)cc1 |  | 42.2 µM |  | > 100 µM |  | > 100 µM |  | 62.4 µM |  | > 100 µM |  | > 100 µM |  | 38.8 µM |  | > 100 µM |  | > 100 µM |  | > 100 µM |
| COc1ccc(-c2oc3c(OC)c(OC)c(OC)c(OC)c3c(=O)c2OC)cc1OC |  | > 100 µM |  | > 100 µM |  | > 100 µM |  | > 100 µM |  | > 100 µM |  | > 100 µM |  | > 100 µM |  | > 100 µM |  | 68 µM |  | > 100 µM |
| CCOC(=O)c1s/c(=N\Nc2nc3ccccc3cc2C2OCCO2)n(Cc2ccccc2)c1C |  | > 100 µM |  | > 100 µM |  | > 100 µM |  | > 100 µM |  | > 100 µM |  | > 100 µM |  | > 100 µM |  | > 100 µM |  | > 100 µM |  | > 100 µM |
| COc1ccc(Cn2c3c(cc(OS(=O)(=O)C(F)(F)F)c2=O)Cc2ccccc2-3)cc1 | 6.55 µM | 50 µM and > 100 µM | 3.53 µM | 50 µM and > 100 µM | 3.36 µM | 50 µM and > 100 µM | 5.14 µM | 50 µM and > 100 µM | 61.1 µM | 50 µM and > 100 µM | 9.37 µM | 50 µM and > 100 µM | 4.18 µM | 50 µM and > 100 µM | 5.1 µM | 50 µM and > 100 µM | 20.7 µM | 50 µM and > 100 µM | 37.7 µM | 50 µM and > 100 µM |
| COc1ccccc1/C=C/C(=O)c1ccccc1 | 3.69 µM | 15 µM | 3.5 µM | 12.8 µM | 11 µM | 28.5 µM | 13.8 µM | 27.4 µM | 16.9 µM | 42.1 µM | 4.69 µM | 17.9 µM | 2.92 µM | > 36.6 µM | 3.41 µM | > 100 µM | 15.4 µM | 31.6 µM | 13.3 µM | 33.1 µM |
| Cn1c2c(c3ccc(Cl)c(Cl)c31)C(C#N)C1(CCNCC1)NC2=O (stereo not given) | 2.94 µM | 10.7 µM | 1.39 µM | 2.92 µM | 2.47 µM | 9.84 µM | 1.75 µM | 3.69 µM | 1.19 µM | 2.54 µM | 1.23 µM | 4.46 µM | 1.23 µM | 2.7 µM | 1.47 µM | 2.89 µM | 1.42 µM | 3.19 µM | 2.24 µM | 12.7 µM |
